Data as given in patent US20230295564A1, “Galectin-9 Specific Binding Agents for Use in Treating Cancer” (Emory University, priority 2020, published 2023).
Like-named read-outs stand apart in the source and are kept apart here.

Assays:
mB-ALL cell cultures = assay: ACM-induced chemoresistance in mB-ALL cell cultures; format: cell-based, murine
human B-ALL cell lines = assay: Annexin-V/PI cell death of human B-ALL cell lines pre-conditioned with RPMI, SCM or ACM
Description: Human B-ALL cell lines (Nalm6, REH,) were cultured for 24 hours in unconditioned medium (RPMI), stromal cell-conditioned medium (SCM), or adipocyte-conditioned medium (ACM) and then treated with anti-GAL-9 antibody (αGAL-9 Ab) or an IgG control antibody (IgG ctrl) for an additional 2 days with or without MTX. The percentage of apoptotic and dead cells on day 3 of culture was determined using Annexin-V/ PI staining followed by flow cytometric analysis.
Thus, additional experiments were performed to determine how adipocyte-conditioned medium (ACM)-exposed B-ALL cells responded to chemotherapy treatment. In obese patients, leukemia cells would be exposed to an adipocyte-rich microenvironment prior to chemotherapy administration. To mimic this scenario in vitro, human B-ALL cell lines were pre-treated for 24 hours with unconditioned medium (RPMI), stromal cell-conditioned medium (SCM), or ACM prior to the addition of methotrexate (MTX) for 2 days.

[1] = test system: murine BCR-ABL+ Arf-/- B-ALL (mB-ALL); conditions: for survival: once weekly from day 7, MTX 0.75 mg/kg, αGAL-9 Ab 1.5 mg/kg
Description: Lean and obese mice were inoculated intravenously with murine Bcr-Abl+ Arf-/- B-ALL cells (mB-ALL). On day 7 post-inoculation, when GFP+ leukemic blasts were detected in the peripheral blood, treatment with DMSO (Vehicle, n=10), 0.75 mg/kg methotrexate (MTX, n=10), 1.5 mg/kg anti-galectin-9 antibody (αGAL-9 Ab, n=10), or (MTX + αGAL-9 Ab) a combined was initiated. Treatments were administered once weekly. Survival was monitored and significance was determined using the log-rank test with “A” representing a statistically significant difference between vehicle and MTX-treated mice, “B” between vehicle and anti-Gal-9 treated groups, and “C” between vehicle and MTX + anti-Gal-9 treated mice.
A murine BCR-ABL+ Arf-/- B-ALL (mB-ALL) model was used to test whether treatment with anti-GAL-9 antibody could be used as a therapy to treat obese mice with B-ALL. […] C57BL/6 mice were maintained on lean and high-fat diets as previously described and then challenged with mB-ALL. Treatment with vehicle, MTX, anti-GAL-9 antibody, or a combination of MTX and anti-GAL-9 antibody was initiated on day 7 after leukemia inoculation, when GFP+ B-ALL cells were detected in the peripheral blood.

COc1cccc2c1C(=O)c1c(O)c3c(c(O)c1C2=O)C[C@@](O)(C(=O)CO)C[C@@H]3O[C@H]1C[C@H](N)[C@H](O)[C@H](C)O1 [doxorubicin]
chemoresistance induced by ACM (mB-ALL cell cultures): induced chemoresistance | resistance induced by exposure to ACM (human B-ALL cell lines): induced resistance

CC[C@]1(O)C[C@H]2CN(CCc3c([nH]c4ccccc34)[C@@](C(=O)OC)(c3cc4c(cc3OC)N(C=O)[C@H]3[C@@](O)(C(=O)OC)[C@H](OC(C)=O)[C@]5(CC)C=CCN6CC[C@]43[C@@H]65)C2)C1 [vincristine]
resistance induced by exposure to ACM (human B-ALL cell lines): induced resistance

CN(Cc1cnc2nc(N)nc(N)c2n1)c1ccc(C(=O)N[C@@H](CCC(=O)O)C(=O)O)cc1 [MTX, methotrexate]
chemoresistance induced by ACM (mB-ALL cell cultures): induced chemoresistance | decrease of MTX-induced cell death (human B-ALL cell lines; cultures pre-treated with ACM): 40-70% | MTX-induced cell death, effect of pre-conditioning (human B-ALL cell lines; pre-conditioning with SCM): not impacted | survival ([1]; lean mice): significantly extended the survival | weight loss ([1]; obese mice): loss substantial weight | survival ([1]; obese mice): not significantly protected
